Legend:
hGPR40 [1] = biological target: T1, hGPR40 (Homo sapiens, UniProt O14842); assay: GPR40 FLIPR assay (agonist-induced calcium mobilization); format: cell-based; set-up: expressed in transfected cells; host or cells: CHO cells stably expressing NFAT BLA (beta-lactamase); conditions: GPR40/CHO NFAT BLA cells;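 further: calcium mobilization in the cells read as fluorescence of fluo-4 AM loaded cells on FLIPR after compound addition, cells preloaded with dye 100 min at room temperature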
hGPR40 [2] = biological target: T1, hGPR40; assay: GPR40 Inositol Phosphate Turnover (IP1) Assay; format: cell-based; set-up: expressed in transfected cells; host or cells: HEK cells stably expressing the aequorin reporter; conditions: HEK cells stably expressing human GPR40; 0% serum; read-out: hGPR40 IP1 EC50 (0% serum)
Procedure: A human GPR40 stable cell-line was generated in HEK cells stably expressing the aequorin expressing reporter.
The assay is performed in 96-well format. HEK cells stably expressing human GPR^40 are plated to be 60-80% confluent within 72 h. After 72 h, the plates are aspirated and the cells washed with inositol-free DMEM (ICN). The wash media is replaced with 150 μL of 3H-inositol labeling media (inositol-free media containing 0.4% human albumin or 0.4% mouse albumin, 1× pen/strep antibiotics, glutamine, 25 mM HEPES to which is added 3H-myo-inositol NEN #NET114A 1mCi/mL, 25 Ci/mmol diluted 1:150 in loading media with a final specific radioactivity of 1 μCi/150 μL). Alternatively, the human and mouse albumin can be added after the overnight labeling step before the addition of LiCl.
The assay is typically run the next day after 18 h labeling. On the day of the assay, 5 μL, of 300 mM LiCl is added to all wells and incubated at 37 degrees for 20 min. 0.75 μL of 200× compounds are added and incubated with the cells for 60 min at 37 degrees. The media is then aspirated off and the assay terminated with the addition of 60 nI, 10 mM formic acid. The cells are lysed for 60 min at room temperature. 15-30 nI, of lysate is mixed with 70 mL/1 mg YSi SPA beads (Amersham) in clear bottom Isoplates. The plates are shaken for 2 h at room temperature. Beads are allowed to settle and the plates are counted in the Wallac Microbeta.

T1 sequence (O14842 whole entry): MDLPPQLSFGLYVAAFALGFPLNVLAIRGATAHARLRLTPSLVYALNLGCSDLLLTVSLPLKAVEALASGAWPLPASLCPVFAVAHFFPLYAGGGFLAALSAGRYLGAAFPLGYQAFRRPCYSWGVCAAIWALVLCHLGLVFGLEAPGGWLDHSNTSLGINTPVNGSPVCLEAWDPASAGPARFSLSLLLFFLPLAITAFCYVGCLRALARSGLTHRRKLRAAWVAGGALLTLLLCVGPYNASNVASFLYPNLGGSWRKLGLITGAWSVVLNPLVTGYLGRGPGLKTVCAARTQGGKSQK

SMILES | EC50 (hGPR40 [1]) | EC50 (hGPR40 [2])
Cc1cc(OCCCS(C)(=O)=O)cc(C)c1-c1ccc(F)c(C(C)Oc2cc3c(cn2)[C@H]2[C@@H](C3)[C@@H]2C(=O)O)c1 (stereo partly drawn) [Compound 30-5, (5aR,6S,6aS)-3-(1-(4-fluoro-2′,6′-dimethyl-4′-(3-(methylsulfonyl)propoxy)-[1,1′-biphenyl]-3-yl)ethoxy)-5,5a,6,6a-tetrahydrocyclopropa[4,5]cyclopenta[1,2-c]pyridine-6-carboxylic acid] | 45 nM | 300 nM
Cc1cc(OCC2(F)CCOCC2)cc(C)c1-c1ccc(F)c(COc2cc3c(cn2)[C@H]2[C@@H](C3)[C@@H]2C(=O)O)c1 [Compound 9-7, (5aR,6S,6aS)-3-((4-fluoro-4′-((4-fluorotetrahydro-2H-pyran-4-yl)methoxy)-2′,6′-dimethyl-[1,1′-biphenyl]-3-yl)methoxy)-5,5a,6,6a-tetrahydrocyclopropa[4,5]cyclopenta[1,2-c]pyridine-6-carboxylic acid] | 19 nM | 9.9 nM
Cc1cccc(C)c1-c1ccc(F)c(COc2cc3c(cn2)C2C(C3)C2C(=O)O)n1 (stereo not shown) [Compound 26-7, 3-((6-(2,6-dimethylphenyl)-3-fluoropyridin-2-yl)methoxy)-5,5a,6,6a-tetrahydrocyclopropa[4,5]cyclopenta[1,2-c]pyridine-6-carboxylic acid] | 42 nM | 120 nM
Cc1c(COc2cc3c(cn2)C2C(C3)C2C(=O)O)cccc1-c1ccccc1C(F)(F)F (stereo not shown) [Compound 27-6, 3-((2-methyl-2′-(trifluoro-methyl)-[1,1′-biphenyl]-3-yl)methoxy)-5,5a,6,6a-tetrahydrocyclopropa[4,5]-cyclopenta[1,2-c]pyridine-6-carboxylic acid] | 30 nM | 85 nM
Cc1cc(OCCCC2(C#N)CC2)cc(C)c1-c1cccc(COc2cc3c(cn2)C2[C@@H](C3)[C@@H]2C(=O)O)c1 (stereo in doubt) [Compound 28-7, (5aR,6S,6aR)-3-((4′-(3-(1-cyano-cyclopropyl)propoxy)-2′,6′-dimethyl-[1,1′-biphenyl]-3-yl)methoxy)-5,5a,6,6a-tetrahydro-cyclopropa[4,5] cyclopenta[1,2-c] pyridine-6-carboxylic acid] | 40 nM | 40 nM
Cc1nc(N2CCN(S(C)(=O)=O)CC2)ccc1-c1ccc(F)c(COc2cc3c(cn2)[C@H]2[C@@H](C3)[C@@H]2C(=O)O)n1 [Compound 26-10, (5aR,6S,6aS)-3-((5-fluoro-2′-methyl-6′-(4-(methylsulfonyl)-piperazin-1-yl)-[2,3′-bipyridin]-6-yl)methoxy)-5,5a,6,6a-tetrahydrocyclo-propa[4,5]cyclopenta [1,2-c]pyridine-6-carboxylic acid] | 90 nM | 300 nM
Cc1cc(OCC2CC(F)(F)C2)cc(C)c1-c1cccc(COc2cc3c(cn2)[C@H]2[C@@H](C3)[C@@H]2C(=O)O)c1 [Compound 16-8, (5aR,6S,6aS)-3-((4′-((3,3-difluorocyclobutyl)methoxy)-2′,6′-dimethyl-[1,1′-biphenyl]-3-yl)methoxy)-5,5a,6,6a-tetrahydrocyclopropa[4,5]cyclopenta[1,2-c]pyridine-6-carboxylic acid] | 20 nM | 55 nM
O=C(O)C1C2Cc3cc(OCc4cc(-c5cccc(C(F)(F)F)c5)ccc4F)ncc3C21 (stereo not shown) [Compound 22-5, 3-((4-fluoro-3′-(trifluoromethyl)-[1,1′-biphenyl]-3-yl)methoxy)-5,5a,6,6a-tetrahydrocyclo-propa[4,5]cyclopenta[1,2-c]pyridine-6-carboxylic acid] | 47 nM | 310 nM
Cc1cc(CCCCS(C)(=O)=O)cc(C)c1-c1ccc(F)c(COc2cc3c(cn2)[C@H]2[C@@H](C3)[C@@H]2C(=O)O)c1 [Compound 19-16, (5aR,6S,6aS)-3-((4-fluoro-2′,6′-dimethyl-4′-(4-(methylsulfonyl)butyl)-[1,1′-biphenyl]-3-yl)methoxy)-5,5a,6,6a-tetrahydrocyclopropa[4,5]cyclopenta[1,2-c]pyridine-6-carboxylic acid] | 160 nM | 7.3 nM
Cc1nc(OCCCS(C)(=O)=O)ccc1-c1cc(COc2cc3c(cn2)[C@H]2[C@@H](C3)[C@@H]2C(=O)O)ccc1C(F)(F)F [Compound 12-10, (5aR,6S,6aS)-3-((3-(2-methyl-6-(3-(methylsulfonyl)propoxy)-pyridin-3-yl)-4-(trifluoromethyl)benzyl)oxy)-5,5a,6,6a-tetrahydrocyclo-propa[4,5] cyclopenta[1,2-c] pyridine-6-carboxylic acid] | 36 nM | 19 nM
Cc1cc(OCCCN2CC(F)(F)C2)cc(C)c1-c1cccc(COc2cc3c(cn2)[C@H]2[C@@H](C3)[C@@H]2C(=O)O)c1 [Compound 18-4, (5aR,6S,6aS)-3-((4′-(3-(3,3-difluoroazetidin-1-yl)propoxy)-2′,6′-dimethyl-[1,1′-biphenyl]-3-yl)methoxy)-5,5a,6,6a-tetrahydrocyclopropa[4,5]cyclopenta[1,2-c]pyridine-6-carboxylic acid] | 16 nM | 26 nM
CS(=O)(=O)CCCOc1cc(F)c(-c2ccc(F)c(COc3cc4c(cn3)[C@H]3[C@@H](C4)[C@@H]3C(=O)O)c2)c(C(F)(F)F)c1 [Compound 10-5, (5aR,6S,6aS)-3-((2′,4-difluoro-4′-(3-(methylsulfonyl)propoxy)-6′-(trifluoromethyl)-[1,1′-biphenyl]-3-yl)methoxy)-5,5a,6,6a-tetrahydrocyclopropa[4,5]cyclopenta[1,2-c]pyridine-6-carboxylic acid] | 18 nM | 12 nM
Cc1nc(N2CCOCC2)nc(C)c1-c1ccc(F)c(COc2cc3c(cn2)C2C(C3)C2C(=O)O)c1 (stereo not shown) [Compound 31-10, 3-((5-(4,6-dimethyl-2-morpholinopyrimidin-5-yl)-2-fluorobenzyl)oxy)-5,5a,6,6a-tetrahydrocyclopropa[4,5]cyclopenta[1,2-c]pyridine-6-carboxylic acid] | 86 nM | 45 nM
CS(=O)(=O)CCCOc1cc(OC(F)F)c(-c2ccc(F)c(COc3cc4c(cn3)[C@H]3[C@@H](C4)[C@@H]3C(=O)O)c2)cn1 [Compound 23-17, (5aR,6S,6aS)-3-((5-(4-(difluoro-methoxy)-6-(3-(methylsulfonyl)propoxy)pyridin-3-yl)-2-fluorobenzyl)-oxy)-5,5a,6,6a-tetrahydrocyclopropa [4,5]cyclopenta[1,2-c] pyridine-6-carboxylic acid] | 58 nM | 82 nM
Cc1cccc(C)c1-c1ccc(F)c(COc2cc3c(cn2)[C@H]2[C@@H](C3)[C@@H]2C(=O)O)c1 [Compound 22-2] | 49 nM | 26 nM
Cc1nc(OCCCS(C)(=O)=O)ccc1-c1cc(COc2cc3c(cn2)[C@H]2[C@@H](C3)[C@@H]2C(=O)O)cc(C(F)(F)F)c1 [Compound 12-8, (5aR,6S,6aS)-3-((3-(2-methyl-6-(3-(methylsulfonyl)propoxy)pyridin-3-yl)-5-(trifluoromethyl)benzyl)oxy)-5,5a,6,6a-tetrahydrocyclo-propa[4,5] cyclopenta[1,2-c] pyridine-6-carboxylic acid] | 27 nM | 79 nM
Cc1cccc(C)c1-c1cc(COc2cc3c(cn2)C2C(C3)C2C(=O)O)c(F)cn1 (stereo not shown) [Compound 26-8, 3-((2-(2,6-dimethyl-phenyl)-5-fluoropyridin-4-yl)methoxy)-5,5a,6,6a-tetrahydrocyclopropa [4,5]cyclopenta[1,2-c]pyridine-6-carboxylic acid] | 28 nM | 100 nM
Cc1nc(OCCCS(C)(=O)=O)ccc1-c1ccc(F)c(COc2cc3c(cn2)[C@H]2[C@@H](C3)[C@@H]2C(=O)O)c1 [Compound 23-10, (5aR,6S,6aS)-3-((2-fluoro-5-(2-methyl-6-(3-(methylsulfonyl)propoxy)pyridin-3-yl)benzyl)oxy)-5,5a,6,6a-tetrahydro-cyclopropa[4,5] cyclopenta[1,2-c] pyridine-6-carboxylic acid] | 46 nM | 15 nM
CC(C)(O)CCOc1cc(C(F)(F)F)c(-c2cccc(COc3cc4c(cn3)[C@H]3[C@@H](C4)[C@@H]3C(=O)O)c2)cn1 [Compound 20-6, (5aR,6S,6aS)-3-((3-(6-(3-hydroxy-3-methylbutoxy)-4-(trifluoromethyl)pyridin-3-yl)benzyl)oxy)-5,5a,6,6a-tetrahydro-cyclopropa[4,5] cyclopenta[1,2-c] pyridine-6-carboxylic acid] | 19 nM | 4.9 nM
O=C(O)C1C2Cc3cc(OCc4cc(-c5cc(Cl)cc(C(F)(F)F)c5)ccc4F)ncc3C21 (stereo not shown) [Compound 22-7, 3-((3′-chloro-4-fluoro-5′-(trifluoromethyl)-[1,1′-biphenyl]-3-yl)methoxy)-5,5a,6,6a-tetrahydrocyclo-propa[4,5]cyclopenta[1,2-c]pyridine-6-carboxylic acid] | 67 nM | 400 nM
Cc1nc(N2CCC3(C=Cc4ccccc43)CC2)nc(C)c1-c1ccc(F)c(COc2cc3c(cn2)C2C(C3)C2C(=O)O)c1 (stereo not shown) [Compound 31-11, 3-((5-(4,6-dimethyl-2-(spiro[indene-1,4′-piperidin]-1′-yl)pyrimidin-5-yl)-2-fluorobenzyl)oxy)-5,5a,6,6a-tetrahydrocyclopropa[4,5]cyclopenta[1,2-c]pyridine-6-carboxylic acid] | 45 nM | 180 nM
Cc1cc(OCC2(C)COC2)cc(C)c1-c1cccc(COc2cc3c(cn2)[C@H]2[C@@H](C3)[C@@H]2C(=O)O)c1 [Compound 3-4, (5aR,6S,6aS)-3-((2′,6′-dimethyl-4′-((3-methyloxetan-3-yl)methoxy)-[1,1′-biphenyl]-3-yl)methoxy)-5,5a,6,6a-tetrahdrocyclopropa[4,5]cyclopenta[1,2-c]pyridine-6-carboxylic acid] | 43 nM | 18 nM
CC(C)(O)CCOc1ccc(-c2cccc(COc3cc4c(cn3)[C@H]3[C@@H](C4)[C@@H]3C(=O)O)c2)c(C(F)(F)F)c1 [Compound 5-6] | 14 nM | 9.5 nM

From patent US20140045746A1 (Merck Sharp & Dohme Corp., priority 2012, published 2014)
